The values that follow come from US20060100431A1, “Biologically active compounds” (Amura Therapeutics Limited, priority 2002, published 2006).

Where only a bound is given, the exact number is not on record here.

What all share (format): biochemical
The target of one assay is T1, human cathepsin B (Homo sapiens, UniProt P07858).
T1 construct: purchased CN Biosciences
Kind of assay: Cathepsin B peptidase activity assay (Ki). Conditions: read-out: Ki, inhibitors of cathepsin B. The protocol: Unless otherwise stated, all general chemicals and biochemicals were purchased from either the Sigma Chemical Company, Poole, Dorset, U.K or from Fisher Scientific UK, Loughborough, Leicestershire, U.K. Absorbance assays were carried out in flat-bottomed 96-well plates (Spectra; Greiner Bio-One Ltd., Stonehouse, Gloucestershire, U.K.) using a SpectraMax PLUS384 plate reader (Molecular Devices, Crawley, U.K.). […] Fluorescence assays were monitored using a SpectraMax Gemini fluorescence plate reader (Molecular Devices). For substrates employing either a 7-amino-4-methylcoumarin (AMC) or a 7-amino-4-trifluoromethylcoumarin (AFC) fluorophore, assays were monitored at an excitation wavelength of 365 nm and an emission wavelength of 450 nm and the fluorescence plate reader calibrated with AMC. For substrates employing a 3-amino-benzoyl (Abz) fluorophore, assays were monitored at an excitation wavelength of 310 nm and an emission wavelength of 445 nm; the fluorescence plate reader calibrated with 3-amino-benzamide (Fluka). Unless otherwise indicated, all the peptidase substrates were purchased from Bachem UK, St Helens, Merseyside, UK. […] Hydroxyethylpiperazine ethanesulfonate (HEPES), tris-hydroxylmethyl aminomethane (tris) base, bis-tris-propane and all the biological detergents (e.g. CHAPS, zwittergents, etc.) were purchased from CN Biosciences UK, Beeston, Nottinghamshire, U.K. Glycerol was purchased from Amersham Pharmacia Biotech, Little Chalfont, Buckinghamshire, U.K. Stock solutions of substrate or inhibitor were made up to 10 mM in 100% dimethylsulfoxide (DMSO) (Rathburns, Glasgow, U.K.) and diluted as appropriately required. In all cases the DMSO concentration in the assays was maintained at less than 1% (vol./vol.).
Enzyme was added as required to initiate the reaction and the activity, as judged by the change in fluorescence upon conversion of substrate to product, was monitored over time. All assays were carried out at 25±1° C.
Bovine cathepsin S, human cathepsin L, human cathepsin H and human cathepsin B were obtained from CN Biosciences. Recombinant human cathepsin S, human cathepsin K and human cathepsin X were obtained from Dr. Boris Turk (Josef Stefan Institute, Ljubljana, Slovenia). Unless otherwise stated, all peptidase activity assays were carried out in 10 mM bis-tris-propane (BTP), pH 6.5 containing 1 mM EDTA, 5 mM 2-mercaptoethanol and 1 mM CaCl2.
The apparent inhibition constant (Ki) for each compound was determined on the basis that inhibition was reversible and occurred by a pure-competitive mechanism. […] [formula]
[formula] Ki^app=Ki(1+[So]/KM^app) (4)
Curves were fitted by non-linear regression analysis (Prism) using a fixed value for the enzyme concentration.

For a further assay, the target named is T2, human cathepsin L (Homo sapiens, UniProt P07711).
T2 construct: purchased CN Biosciences
Kind of assay: Cathepsin L peptidase activity assay (Ki). The settings on record: read-out: Ki, inhibitors of cathepsin L. Here is the method:
Unless otherwise stated, all general chemicals and biochemicals were purchased from either the Sigma Chemical Company, Poole, Dorset, U.K or from Fisher Scientific UK, Loughborough, Leicestershire, U.K. Absorbance assays were carried out in flat-bottomed 96-well plates (Spectra; Greiner Bio-One Ltd., Stonehouse, Gloucestershire, U.K.) using a SpectraMax PLUS384 plate reader (Molecular Devices, Crawley, U.K.). Fluorescence high throughput assays were carried out in either 384-well microtitre plates (Corning Costar 3705 plates, Fisher Scientific) or 96-well ‘U’ bottomed Microfluor W1 microtitre plates (Thermo Labsystems, Ashford, Middlesex, U.K.). Fluorescence assays were monitored using a SpectraMax Gemini fluorescence plate reader (Molecular Devices). For substrates employing either a 7-amino-4-methylcoumarin (AMC) or a 7-amino-4-trifluoromethylcoumarin (AFC) fluorophore, assays were monitored at an excitation wavelength of 365 nm and an emission wavelength of 450 nm and the fluorescence plate reader calibrated with AMC. For substrates employing a 3-amino-benzoyl (Abz) fluorophore, assays were monitored at an excitation wavelength of 310 nm and an emission wavelength of 445 nm; the fluorescence plate reader calibrated with 3-amino-benzamide (Fluka). Unless otherwise indicated, all the peptidase substrates were purchased from Bachem UK, St Helens, Merseyside, UK. Substrates utilizing fluorescence resonance energy transfer methodology (i.e. FRET-based substrates) were synthesized at Incenta Limited using published methods (Atherton & Sheppard, Solid Phase Peptide Synthesis, IRL Press, Oxford, U.K, 1989) and employed Abz (2-aminobenzoyl) as the fluorescence donor and 3-nitro-tyrosine [Tyr(NO2)] as the fluorescence quencher (Meldal, M. and Breddam, K., Anal. Biochem, 195, 141-147, 1991). Hydroxyethylpiperazine ethanesulfonate (HEPES), tris-hydroxylmethyl aminomethane (tris) base, bis-tris-propane and all the biological detergents (e.g. CHAPS, zwittergents, etc.) were purchased from CN Biosciences UK, Beeston, Nottinghamshire, U.K. Glycerol was purchased from Amersham Pharmacia Biotech, Little Chalfont, Buckinghamshire, U.K. Stock solutions of substrate or inhibitor were made up to 10 mM in 100% dimethylsulfoxide (DMSO) (Rathburns, Glasgow, U.K.) and diluted as appropriately required. In all cases the DMSO concentration in the assays was maintained at less than 1% (vol./vol.).
Assay protocols were based on literature precedent (Table 4; Barrett, A. J., Rawlings, N. D. and Woessner, J. F., 1998, Handbook of Proteolytic Enzymes, Academic Press, London and references therein) and modified as required to suit local assay protocols. Enzyme was added as required to initiate the reaction and the activity, as judged by the change in fluorescence upon conversion of substrate to product, was monitored over time. All assays were carried out at 25±1° C.
Bovine cathepsin S, human cathepsin L, human cathepsin H and human cathepsin B were obtained from CN Biosciences. Recombinant human cathepsin S, human cathepsin K and human cathepsin X were obtained from Dr. Boris Turk (Josef Stefan Institute, Ljubljana, Slovenia). Unless otherwise stated, all peptidase activity assays were carried out in 10 mM bis-tris-propane (BTP), pH 6.5 containing 1 mM EDTA, 5 mM 2-mercaptoethanol and 1 mM CaCl2. Human cathepsin H activity assays were carried out in 10 mM BTP pH 6.5, 142 mM NaCl2, 1 mM CaCl2, 1 mM EDTA, 1 mM DTT, 0.035 mM Zwittergent 3-16. Human cathepsin K assays were carried out in 100 mM sodium acetate; pH 5.5 containing 20 mM L-cysteine and 1 mM EDTA (Bossard, M. J., et. al., J. Biol. Chem., 21, 12517-12524, 1996). Human cathepsin X assays were carried out in 100 mM sodium acetate; pH 5.5 containing 20 mM L-cysteine; 0.05% (w/v) Brij 35 and 1 mM EDTA (Santamaria, I., et. al., J. Biol. Chem., 273, 16816-16823, 1998; Klemencic, J, et al., Eur. J. Biochem., 267, 5404-5412, 2000). […]

The next assay deals with T3, CPB2.8ΔCTE (Leishmania mexicana, UniProt P36400).
T3 construct: Wild-type recombinant CPB without the C-terminal extention (i.e. CPB2.8ΔCTE); Dr. Jeremy Mottram (Wellcome Centre for Molecular Parasitology, University of Glasgow)
Kind of assay: Leishmania mexicana cysteine protease B (CPB) peptidase activity assay (Ki). Conditions: Ki, inhibitors of Leismania mexicana CPB protease. In outline:
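Apparent Ki was derived by regression of activity against inhibitor concentration, assuming pure-competitive reversible binding. Reaction: 0.25 nM CPB lacking the C-terminal extension, pH 5.5 acetate buffer (1 mM EDTA, 200 mM NaCl, 10 mM DTT), 25 °C, followed by continuous substrate fluorescence.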

Another assay addresses Wild-type cruzipain (Trypanosoma cruzi, UniProt P25779). Description: Trypanosoma cruzi cruzipain peptidase activity assay (Ki). Conditions: read-out: Ki, inhibitors of cruzain and cruzipains. The procedure, abridged:
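Native cruzipain from T. cruzi Dm28 epimastigotes, 2.5 nM, in 100 mM sodium phosphate pH 6.75 with 1 mM EDTA and 10 mM L-cysteine, 25 °C, DMSO <1%. Rates taken from continuous fluorogenic substrate read; Ki by regression assuming reversible pure-competitive inhibition.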

Chain of Wild-type cruzipain (P25779 whole entry): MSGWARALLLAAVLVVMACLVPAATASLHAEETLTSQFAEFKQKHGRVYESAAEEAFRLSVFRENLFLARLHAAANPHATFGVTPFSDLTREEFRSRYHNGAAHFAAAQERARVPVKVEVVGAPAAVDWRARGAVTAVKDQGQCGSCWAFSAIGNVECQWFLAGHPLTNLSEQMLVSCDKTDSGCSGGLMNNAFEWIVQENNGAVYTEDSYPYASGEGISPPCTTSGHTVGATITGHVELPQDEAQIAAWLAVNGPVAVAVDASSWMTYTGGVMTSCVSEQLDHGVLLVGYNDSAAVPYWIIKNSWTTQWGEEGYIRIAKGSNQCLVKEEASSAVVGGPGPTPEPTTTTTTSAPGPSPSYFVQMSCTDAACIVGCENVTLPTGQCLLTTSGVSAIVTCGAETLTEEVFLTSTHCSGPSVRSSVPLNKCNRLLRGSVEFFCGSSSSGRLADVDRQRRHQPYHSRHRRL
T2 sequence (P07711 114-333): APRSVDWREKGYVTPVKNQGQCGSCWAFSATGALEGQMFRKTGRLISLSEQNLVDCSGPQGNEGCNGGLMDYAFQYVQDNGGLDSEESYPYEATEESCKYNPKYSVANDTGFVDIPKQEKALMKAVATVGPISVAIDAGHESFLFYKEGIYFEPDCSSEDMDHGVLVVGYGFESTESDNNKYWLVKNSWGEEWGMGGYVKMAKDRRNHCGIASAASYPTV
T3 sequence (P36400 126-343, stated change not applied): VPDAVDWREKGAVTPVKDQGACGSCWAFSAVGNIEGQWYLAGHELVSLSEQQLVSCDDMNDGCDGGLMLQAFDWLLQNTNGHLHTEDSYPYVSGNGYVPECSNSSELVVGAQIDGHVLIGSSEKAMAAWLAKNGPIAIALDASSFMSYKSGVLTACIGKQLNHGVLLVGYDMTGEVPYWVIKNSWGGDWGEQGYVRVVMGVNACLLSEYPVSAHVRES

The Ki is the equilibrium dissociation constant of an inhibitor or competing ligand from its target. `O=C(N[C@@H](CSCc1ccccc1)C(=O)N1CC[C@@H]2[C@H]1C(=O)CN2C(=O)c1ccccc1)c1cc2ccccc2s1` [Example 252, (3aR,6aS)-Benzo[b]thiophene-2-carboxylic acid [(1R)-2-(4-benzoyl-6-oxo-hexahydro-pyrrolo[3,2-b]pyrrol-1-yl)-1-benzylsulfanylmethyl-2-oxo-ethyl]-amide]: on human cathepsin B, the Ki is below 5 µM. Still for that read-out and setting: for `O=C(N[C@@H](CSCc1ccccc1)C(=O)N1CC[C@@H]2[C@H]1C(=O)CN2C(=O)c1cccc([N+](=O)[O-])c1)c1ccsc1` [Example 264, (3aR,6aS)-Thiophene-3-carboxylic acid {(1R)-1-benzylsulfanylmethyl-2-[4-(3-nitro-benzoyl)-6-oxo-hexahydro-pyrrolo[3,2-b]pyrrole-1-yl]-2-oxo-ethyl}-amide] the value was below 5 µM. Same read-out and setting: for `O=C(N[C@@H](CSCc1ccccc1)C(=O)N1CC[C@@H]2[C@H]1C(=O)CN2C(=O)C12CC3CC(CC1C3)C2)c1ccsc1` [Example 266, (3aR,6aS)-Thiophene-3-carboxylic acid {(1R)-1-benzylsulfanylmethyl-2-[4-(hexahydro-2,5-methano-pentalene-3a-carbonyl)-6-oxo-hexahydro-pyrrolo[3,2-b]pyrrole-1-yl]-2-oxo-ethyl}-amide] the value was below 5 µM; for `O=C(N[C@@H](CSCc1ccccc1)C(=O)N1CC[C@@H]2[C@H]1C(=O)CN2C(=O)c1ccc(O)cc1)c1ccsc1` [Example 267, (3aR,6aS)-Thiophene-3-carboxylic acid {(1R)-1-benzylsulfanylmethyl-2-[4-(4-hydroxy-benzoyl)-6-oxo-hexahydro-pyrrolo[3,2-b]pyrrol-1-yl]-2-oxo-ethyl}-amide], below 5 µM; for `CS(=O)(=O)c1ccccc1C(=O)N1CC(=O)[C@@H]2[C@H]1CCN2C(=O)[C@H](CC1CCCCC1)NC(=O)C(c1ccccc1)c1ccccc1` [Example 279, (3aR,6aS)-N-{(1S)-1-Cyclohexylmethyl-2-[4-(2-methanesulfonyl-benzoyl)-6-oxo-hexahydro-pyrrolo[3,2-b]pyrrole-1-yl]-2-oxo-ethyl}-2,2-diphenyl-acetamide], below 5 µM. On the same count and under the same terms, to `CC(C)C[C@H](NC(=O)c1ccc(Oc2ccccc2)cc1)C(=O)N1CC[C@@H]2[C@H]1C(=O)CN2C(=O)c1ccccc1S(C)(=O)=O` [Example 40, (3aR,6aS)-N-{(1S)-1-[4-(2-Methanesulfonyl-benzoyl)-6-oxo-hexahydro-pyrrolo[3,2-b]pyrrole-1-carbonyl]-3-methyl-butyl}-4-phenoxy-benzamide] belongs below 5 µM. For the compound `CC(C)C[C@H](NC(=O)c1cccc(CN)c1)C(=O)N1CC[C@@H]2[C@H]1C(=O)CN2C(=O)Cc1ccccc1` [Example 118, (3aR,6aS)-3-Aminomethyl-N-[(1S)-3-methyl-1-(6-oxo-4-phenylacetyl-hexahydro-pyrrolo[3,2-b]pyrrole-1-carbonyl)-butyl]-benzamide], the Ki at human cathepsin L, on CPB2.8ΔCTE and on Wild-type cruzipain was below 5 µM throughout. For `O=C(N[C@@H](CSCc1ccccc1)C(=O)N1CC[C@@H]2[C@H]1C(=O)CN2C(=O)c1ccccc1)c1csc2ccccc12` [Example 253, (3aR,6aS)-Benzo[b]thiophene-3-carboxylic acid [(1R)-2-(4-benzoyl-6-oxo-hexahydro-pyrrolo[3,2-b]pyrrole-1-yl)-1-benzylsulfanylmethyl-2-oxo-ethyl]-amide], the inhibition constant (Ki) at human cathepsin B was below 5 µM. On the same count and under the same terms, for `CC(C)C[C@H](NC(=O)c1ccc(Oc2ccccc2)cc1)C(=O)N1CC[C@@H]2[C@H]1C(=O)CN2C(=O)c1cccc(S(C)(=O)=O)c1` [Example 41, (3aR,6aS)-N-{(1S)-1-[4-(3-Methanesulfonyl-benzoyl)-6-oxo-hexahydro-pyrrolo[3,2-b]pyrrole-1-carbonyl]-3-methyl-butyl}-4-phenoxy-benzamide] the value was below 5 µM. Turning to `CC(C)C[C@H](NC(=O)c1ccc(N(C)C)cc1)C(=O)N1CC[C@@H]2[C@H]1C(=O)CN2C(=O)c1cccc(F)c1` [Example 63, (3aR,6aS)-4-Dimethylamino-N-{(1S)-1-[4-(3-fluoro-benzoyl)-6-oxo-hexahydro-pyrrolo[3,2-b]pyrrole-1-carbonyl]-3-methyl-butyl}-benzamide], the Ki on human cathepsin L, at CPB2.8ΔCTE and at Wild-type cruzipain was below 5 µM each time. As to `CC(C)C[C@H](NC(=O)c1cccc(CN)c1)C(=O)N1CC[C@@H]2[C@H]1C(=O)CN2C(=O)Nc1ccccc1` [Example 175, (3aS,6aR)-4-[(2S)-2-(3-Aminomethyl-benzoylamino)-4-methyl-pentanoyl]-3-oxo-hexahydro-pyrrolo[3,2-b]pyrrole-1-carboxylic acid phenylamide], the Ki at human cathepsin L, at CPB2.8ΔCTE and at Wild-type cruzipain was below 5 µM each time.
